Data: EP1285920A1, “C10 Ester sustituted taxanes as antitumor agents” (Florida State University Research Foundation, Inc., priority 2001, dated 2003)
Marks after values point to notes of the source that are not given here.

Experiments:
HCT116 = assay: In Vitro cytotoxicity measured by the cell colony formation assay; assay type: cell-based, human; conditions: Homo sapiens, HCT-116; read-out: IN VITRO ID 50 HCT116
Outline: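 Four hundred cells per dish in McCoy's 5a medium with 10% FBS were allowed to attach for 5 h at 37 °C. They were then exposed to compound for 72 h at 37 °C, added as a 10× stock made fresh in medium. After HBSS rinsing and refeeding, colonies were counted after 7 days.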

[1] = test system: MX-1 human breast carcinoma; assay type: in vivo; conditions: for Toxic Deaths / Complete Response / Partial Response / Stable Disease: number of mice, mg/kg: 0499 80, 0550 73, 0611 113, 0748 200, 6 mice/group; for Complete Response / Partial Response / Stable Disease: Day 63; for % Reduction (Weight): po, 432 h
Description: (§1) Antitumor compounds were administered orally in a study to investigate whether such a formulation is efficacious against the MX-1 human breast carcinoma xenograft. Antitumor compound 0499 was formulated as Solution 1 in Example 6. Antitumor compound 0550 was formulated as Solution 2 in Example 6. Antitumor compound 0611 was formulated as Solution 3 in Example 6. Antitumor compound 0748 was formulated as Solution 4 in Example 6. Other antitumor compounds were formulated similarly. The compounds were prepared in a vehicle of 90% saline, 5% Cremophor, and 5% ethanol.
(§2) Female nu/nu mice (11-12 weeks of age; implanted subcutaneously with 1 mm^3 MX-1 human breast carcinoma fragments in the flank) were sorted into one control group (n=10) and four treatment (n=6) groups (group mean tumor size of 47-49 mg). The study was terminated on Day 63.

blood cell populations = assay: Effect of oral treatment on blood cell populations and body weight in the MX-1 study (Example 22); assay type: in vivo, nu/nu mice; set-up: neutrophil reduction: concentration or dose not given beside the values; conditions: for Monocytes (K/µL) / Neutrophils (K/µL): Day 4; for Monocytes (K/µL) / Neutrophils (K/µL) / Maximum Weight Loss (Day): single oral bolus Day 1; for Maximum Weight Loss (Day): body weight, day of maximum in parentheses in the cell
Description: as §1, §2
In addition to survival and tumor regression responses, the effect of treatment on blood cell populations was assessed. The major effect of these antitumor compounds on blood cell populations was a marked reduction in the neutrophil cell number. As well, monocyte depletion correlated fairly well with neutrophil reduction for each antitumor compound. […] There was a correlation between antitumor activity and reduced neutrophil count. In general, toxicity (as determined by neutrophil depletion) and weight loss correlated with efficacy. […] Importantly, the toxicities observed with the very efficacious antitumor compounds were manageable and reversible; neutrophil count and body weight rebounded from their low points in just a few days. Table 20 summarizes the weight reduction, neutrophil and monocyte measurements on Day 4, with tumor weight reduction calculated at Day 18: Table 20

HCT116 carcinoma = conditions: number of 5 mice; i.v. qd x 1 at MTD, Day 60; mg/kg: Taxol 36 (split doses), 0503 72.6, 0536 49, 0663 159, 0670 123, 0687 159, 0706 108, 0908 159, 0947 76.9, 0951 72.6, 0983 72.6, 0999 49, 1003 49, 1011 108
Outline: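 Mice bearing HCT116 tumours received a single i.v. maximum tolerated dose per compound, formulated in 5% ethanol, 5% Cremophor, 90% isotonic saline. Study ended on Day 60; complete response meant no palpable tumour at study end.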

MX-1 carcinoma = conditions: number of 6 mice; i.v. qd x 1 at MTD, Day 60; mg/kg: Taxol 36 (split dose), 0503 72.6, 0536 49, 0663 159, 0670 123, 0687 159, 0706 108, 0908 159, 0947 76.9, 0951 72.6, 0983 67.4, 0999 49, 1003 49, 1011 108
Outline: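 Mice dosed with a single i.v. bolus (qd x 1) at each compound's MTD, formulated in 5% ethanol, 5% Cremophor, 90% isotonic saline. Study ended Day 60; complete response = tumor not palpable at study end.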

A2780 ovarian carcinoma = conditions: number of mice; i.v. qd x 1 at estimated MTD (Taxol 24 mg/kg, Taxotere 70 mg/kg, 0983 72.6 mg/kg); 5 mice/group (Taxotere 6)
Description: Dosing was initiated on Day 1. […] Taxotere was given i.v. on a qd x 1 schedule at a dose of 70 mg/kg. […] The study was terminated on Day 60. Treatment groups are detailed in Table 7.

SKMES lung carcinoma = assay: In vivo evaluation of oral administration against SKMES human lung carcinoma xenograft (Example 21); conditions: number of mice, single oral bolus Day 1, mg/kg: Taxol 40, 0687 228, 0503 73, 6 mice/group
Description: Female Nu/Nu mice (6-8 weeks of age; implanted with 1 mm^3 SKMES lung carcinoma fragments in the flank) were sorted into treatment groups of six mice each. […] Treatments were administered as a single oral bolus on Day 1, and the study was terminated on Day 60.
A complete response is obtained if the tumor is not palpable at the end of the study.
The total response rate is defined as the percentage of evaluable animals (excluding deaths due to procedure or toxicity) in a group that experience complete or partial responses at the termination of the study.

[2] = Day 4, vs vehicle, single oral bolus, mg/kg: 0499 80, 0550 73, 0611 113, 0748 200
[3] = mg/kg: 0499 80, 0550 73, 0611 113, 0748 200

| SMILES | IC50 (HCT116) | Toxic Deaths ([1]; single oral bolus Day 1) | Complete Response ([1]; single oral bolus Day 1) | Partial Response ([1]; single oral bolus Day 1) | Stable Disease ([1]; single oral bolus Day 1) | % Reduction (Weight) [1] | % Reduction (Neutrophils) (blood cell populations; [2]) | Monocytes (K/µL) (blood cell populations; [3]) | Neutrophils (K/µL) (blood cell populations; [3]) | Maximum Weight Loss (Day) (blood cell populations; [3]) | other results |
| --- | --- | --- | --- | --- | --- | --- | --- | --- | --- | --- | --- |
| CCC(=O)O[C@H]1C(=O)[C@@]2(C)[C@H]([C@H](OC(=O)c3ccccc3)[C@]3(O)C[C@H](OC(=O)[C@H](O)[C@@H](NC(=O)c4ccccc4)c4ccccc4)C(C)=C1C3(C)C)[C@]1(OC(C)=O)CO[C@@H]1C[C@@H]2O [Compound 0748] | < 10 nM | 0 | 0 | 0 | 1 | 69.1% | 70.5% | 0.117 K/µL | 0.269 K/µL | -4.6% (5) | antitumor activity ([1]; MX-1, single oral bolus Day 1): significant survival extensions compared to vehicle control mice |
| CCC(=O)O[C@H]1C(=O)[C@@]2(C)[C@H]([C@H](OC(=O)c3ccccc3)[C@]3(O)C[C@H](OC(=O)[C@H](O)[C@@H](NC(=O)OC(C)(C)C)c4cccs4)C(C)=C1C3(C)C)[C@]1(OC(C)=O)CO[C@@H]1C[C@@H]2O [Compound 0550] | < 10 nM | 0 | 6 | 0 | 0 | 100.0% | 95.9% | 0.019 K/µL | 0.037 K/µL | -16.1% (5) | complete tumor regressions ([1]; MX-1, single oral bolus Day 1, six mice per group (0611: five evaluable), ended Day 63): six; % Reduction (Monocytes) (blood cell populations; [2]): 80.2%; neutrophil reduction (blood cell populations; MX-1 study, single oral bolus, day 4): 95.9%; body weight loss (blood cell populations; MX-1 study, single oral bolus, day 5): 16.1% |
| CCC(=O)O[C@H]1C(=O)[C@@]2(C)[C@H]([C@H](OC(=O)c3ccccc3)[C@]3(O)C[C@H](OC(=O)[C@H](O)[C@@H](NC(=O)c4ccccc4)c4cccs4)C(C)=C1C3(C)C)[C@]1(OC(C)=O)CO[C@@H]1C[C@@H]2O [Compound 0687] | – | – | – | – | – | – | – | – | – | – | Toxic Deaths (HCT116 carcinoma): 0; Toxic Deaths (MX-1 carcinoma): 1; Toxic Deaths (A2780 ovarian carcinoma): 0; Toxic Deaths (SKMES lung carcinoma): 1^a; Complete Response (SKMES lung carcinoma; Day 60): 4; Partial Response (SKMES lung carcinoma; Day 60): 1; Stable Disease (SKMES lung carcinoma; Day 60): 0 |
